In paper PMC6754302 (Cell chemical biology, 2019):
“Also recorded” adds a separate entry of the source.

Tests used:
[1] = biological target: T1, Recombinant C6 enzyme (Homo sapiens, UniProt P55212); conditions: 10 μM inhibitor
T1 sequence (P55212 24-179 limits assumed): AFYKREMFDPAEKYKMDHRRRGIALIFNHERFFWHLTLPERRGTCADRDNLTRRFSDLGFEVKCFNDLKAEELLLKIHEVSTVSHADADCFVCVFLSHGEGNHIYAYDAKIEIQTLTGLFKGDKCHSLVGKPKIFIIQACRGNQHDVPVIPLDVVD
T1 sequence (P55212 194-293 limits assumed): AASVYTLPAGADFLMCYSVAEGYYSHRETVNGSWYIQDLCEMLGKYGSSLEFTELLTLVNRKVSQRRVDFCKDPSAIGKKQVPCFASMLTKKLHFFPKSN

[2] = biological target: T2, caspase-6 (C6) (Homo sapiens, UniProt P55212); experiment: TR-FRET-based C6 activity assay with HTT1–1212 as substrate; format: biochemical; conditions: for shift of dose-response curve with pre-incubation time: 0 min vs 60 min pre-incubation of C6 with compound
T2 sequence (P55212 24-179 limits assumed): T1 sequence (P55212 24-179 limits assumed)
T2 sequence (P55212 194-293 limits assumed): T1 sequence (P55212 194-293 limits assumed)

[3] = biological target: T3, pro-C6 (C6 zymogen) (Homo sapiens, UniProt P55212); experiment: LE22 labelling of C6 in lysates of transfected COS-7 cells; format: cell-based
T3 sequence (P55212 1-293): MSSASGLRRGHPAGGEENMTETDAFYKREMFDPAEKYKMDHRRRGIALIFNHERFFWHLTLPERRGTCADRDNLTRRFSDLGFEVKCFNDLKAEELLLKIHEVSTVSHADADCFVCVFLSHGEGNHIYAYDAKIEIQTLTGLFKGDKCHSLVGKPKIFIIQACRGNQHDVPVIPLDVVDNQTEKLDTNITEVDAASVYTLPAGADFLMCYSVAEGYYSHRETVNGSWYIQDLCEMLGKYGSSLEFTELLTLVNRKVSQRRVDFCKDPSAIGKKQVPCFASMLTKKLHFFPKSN

[4] = system: pro-C6 (C6 zymogen); experiment: as above; format: cell-based, human; conditions: 10 μM in the culture medium, co-transfection with mHTT1–586
[5] = biological target: T1, Recombinant C6 enzyme; experiment: Washout experiment; format: biochemical; conditions: read-out: inhibition of C6 activity after washout
[6] = biological target: T2, caspase-6 (C6); experiment: C6 activity assay using the VEID-AFC peptide as a substrate; format: biochemical
[7] = biological target: T4, intracellular C6 activity (Homo sapiens, UniProt P55212); experiment: Intracellular lamin A cleavage ELISA; format: cell-based
T4 sequence (P55212 24-293): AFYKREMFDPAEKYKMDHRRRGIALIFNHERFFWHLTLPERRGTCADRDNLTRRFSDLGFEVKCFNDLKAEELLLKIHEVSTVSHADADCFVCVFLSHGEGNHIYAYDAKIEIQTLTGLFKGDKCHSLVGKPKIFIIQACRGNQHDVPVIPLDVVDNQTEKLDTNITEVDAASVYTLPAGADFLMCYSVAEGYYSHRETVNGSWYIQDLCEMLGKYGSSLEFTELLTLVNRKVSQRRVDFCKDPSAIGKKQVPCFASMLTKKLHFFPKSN

[8] = biological target: T5, C6 (Homo sapiens, UniProt P55212); format: cell-based; conditions: for intracellular C6-mediated cleavage of HTT1–1212 (HTT1–586 fragment): COS-7 cells co-transfected with C6 and HTT1–1212, compound in the media
T5 sequence (P55212 24-293): T4 sequence (P55212 24-293)

[9] = biological target: T6, C6-HTT interaction (Homo sapiens, UniProt P55212); experiment: Co-immunoprecipitation of HTT with DDK-tagged C6 from co-transfected COS-7 cells; format: cell-based
T6 sequence (P55212 24-293): T4 sequence (P55212 24-293)

For O=c1oc(C#Cc2ccccc2)nc(O)c1Cc1ccccc1 [PG3d, 5-Benzyl-4-hydroxy-2-(phenylethynyl)-6H-1,3-oxazin-6-one], the “LE22 labelling of C6 after inhibitor pre-incubation” value [1] was “did not block accessibility of the active site”, the “inhibition of HTT proteolysis” value [2] was “strong inhibition” and the “shift of dose-response curve with pre-incubation time” value [2] was “shift towards a lower IC50 value”. For the same compound, the “mHTT1–586-induced increase of LE22 binding to pro-C6 (C6wt)” value ([3]; 10 μM in the culture medium, co-transfection with mHTT1–586) was “completely reversed”, the “LE22 labelling for deltaPro and D23A C6” value [4] was “normalized the amount of LE22 labelling” and the inhibition at 10 µM [5] was 100%. For the same compound, the “inhibitory effect on C6-mediated cleavage of small peptide substrates (VEID-AFC)” value [6] was “minimal inhibitory effect”, the “inhibition of lamin A proteolysis” value [7] was “strong inhibition” and the “intracellular C6-mediated cleavage of HTT1–1212 (HTT1–586 fragment)” value [8] was “inhibited”. The “reduction in HTT co-immunoprecipitation” value ([9]; PG3d 10 μM in the media, mHTT1–1212) was 50%.

For VDVAD-CHO [reference compound], the “LE22 labelling of C6 after inhibitor pre-incubation” value [1] was “is replaced by the irreversible binding of the LE22 probe” and the “shift of dose-response curve with pre-incubation time” value [2] was “did not exhibit time-dependent behaviour”.

For zVAD-fmk, the “LE22 labelling of C6 after inhibitor pre-incubation” value [1] was “prevented labelling of C6 with LE22”.

In the case of CC(C)[C@H](NC(=O)c1ccc2ccccc2n1)C(=O)N[C@@H](CC(=O)O)C(=O)COc1c(F)cccc1F [Q-VD-OPh], the “proportion of pro-C6 and p18-C6 labelled with LE22” value ([3]; C6-transfected cells treated with Q-VD-OPh prior to lysis) is reported as “decreased”, the “intracellular generation of active C6 subunits (p18)” value ([8]; COS-7 cells co-transfected with C6 and HTT1–1212, Q-VD-OPh 3 μM) is reported as “reduces the intracellular generation of active C6 subunits” and the “intracellular C6-mediated cleavage of HTT1–1212 (HTT1–586 fragment)” value [8] is reported as “lowers HTT1–586 fragment levels”. For the same compound, the “effect on co-immunoprecipitation of HTT with C6” value ([9]; Q-VD-OPh 3 μM) was “not prevented; also recorded: no significant difference”.
